We go through three compounds from US7163946B2 (Ligand Pharmaceuticals Incorporated, priority 2002, dated 2007).

The term IC50 denotes the concentration that inhibits the measured activity by half. Lower therefore signals greater potency. The EC50 is the concentration needed to bring the measured effect to its halfway point. A higher EC50 goes with a need for much substance.

Assay type in all cases: cell-based
The target of test [1] is T1, hPR (Homo sapiens, UniProt P06401).
T1 sequence (P06401 1-933): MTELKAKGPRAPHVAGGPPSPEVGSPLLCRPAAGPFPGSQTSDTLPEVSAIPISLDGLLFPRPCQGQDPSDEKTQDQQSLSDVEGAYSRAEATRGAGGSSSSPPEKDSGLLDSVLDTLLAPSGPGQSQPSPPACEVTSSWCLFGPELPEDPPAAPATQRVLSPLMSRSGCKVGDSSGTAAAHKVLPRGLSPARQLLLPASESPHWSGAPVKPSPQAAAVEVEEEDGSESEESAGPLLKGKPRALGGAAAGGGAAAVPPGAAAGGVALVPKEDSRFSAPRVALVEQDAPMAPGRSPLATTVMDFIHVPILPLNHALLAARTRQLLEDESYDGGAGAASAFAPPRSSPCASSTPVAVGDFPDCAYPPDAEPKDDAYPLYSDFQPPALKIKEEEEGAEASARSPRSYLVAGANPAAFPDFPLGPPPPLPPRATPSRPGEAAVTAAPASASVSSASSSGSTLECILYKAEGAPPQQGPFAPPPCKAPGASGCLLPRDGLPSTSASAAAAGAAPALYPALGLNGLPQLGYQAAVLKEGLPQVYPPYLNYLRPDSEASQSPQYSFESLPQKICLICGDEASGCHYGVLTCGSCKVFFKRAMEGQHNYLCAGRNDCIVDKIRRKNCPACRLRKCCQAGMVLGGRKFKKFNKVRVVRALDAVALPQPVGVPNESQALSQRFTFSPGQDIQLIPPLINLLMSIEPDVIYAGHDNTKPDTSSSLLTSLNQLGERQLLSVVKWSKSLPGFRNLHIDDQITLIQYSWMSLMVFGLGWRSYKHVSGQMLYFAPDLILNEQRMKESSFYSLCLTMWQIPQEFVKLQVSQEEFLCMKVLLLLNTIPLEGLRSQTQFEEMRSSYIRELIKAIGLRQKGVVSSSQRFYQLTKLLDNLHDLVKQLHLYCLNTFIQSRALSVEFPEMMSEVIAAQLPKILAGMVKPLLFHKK
Put plainly: hPR cotransfection assay in CV-1 cells, antagonist mode. Conditions: for Emax: CV-1, CV-1 cells, maximal inhibition of reference agonist at EC50 concentration, read-out: hPR Antagonist CV-1 Cells Eff. (%); for IC50: CV-1 cells.
Experimental: (§1) Antagonist efficacy was determined as a function (%) of maximal inhibition of a reference agonist at EC50 concentration. All the cotransfection experiments were carried out in 96-well plates by automation (Beckman Biomomek automated workstation).

The target of test [2] is T2, human androgen receptor (hAR) (Homo sapiens, UniProt P10275).
T2 sequence (P10275 1-920): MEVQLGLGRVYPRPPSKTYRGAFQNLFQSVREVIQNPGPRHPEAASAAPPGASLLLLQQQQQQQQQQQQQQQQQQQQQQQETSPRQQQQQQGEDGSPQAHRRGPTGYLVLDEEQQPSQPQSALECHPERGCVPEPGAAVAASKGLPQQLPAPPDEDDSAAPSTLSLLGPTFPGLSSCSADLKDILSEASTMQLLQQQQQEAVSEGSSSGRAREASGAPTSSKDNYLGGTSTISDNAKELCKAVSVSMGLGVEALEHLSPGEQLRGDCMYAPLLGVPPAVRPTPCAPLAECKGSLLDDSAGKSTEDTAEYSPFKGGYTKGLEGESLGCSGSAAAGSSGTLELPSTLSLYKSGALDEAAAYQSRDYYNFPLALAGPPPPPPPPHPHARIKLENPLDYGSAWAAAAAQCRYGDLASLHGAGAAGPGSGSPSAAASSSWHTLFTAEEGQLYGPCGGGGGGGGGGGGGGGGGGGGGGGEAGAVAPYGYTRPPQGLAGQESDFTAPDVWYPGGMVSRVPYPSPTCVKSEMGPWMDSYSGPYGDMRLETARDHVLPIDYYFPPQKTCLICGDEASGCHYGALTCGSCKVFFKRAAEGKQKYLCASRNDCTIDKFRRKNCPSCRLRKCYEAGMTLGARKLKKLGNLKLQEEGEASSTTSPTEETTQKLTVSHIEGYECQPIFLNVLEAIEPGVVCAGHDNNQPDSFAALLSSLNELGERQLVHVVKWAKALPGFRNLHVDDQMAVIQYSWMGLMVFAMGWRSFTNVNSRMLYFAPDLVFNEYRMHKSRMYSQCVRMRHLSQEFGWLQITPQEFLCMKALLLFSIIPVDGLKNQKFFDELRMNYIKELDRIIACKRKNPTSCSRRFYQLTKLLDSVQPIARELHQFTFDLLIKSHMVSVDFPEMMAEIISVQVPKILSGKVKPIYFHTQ
Put plainly: hAR cotransfection assay (potency ratio to hPR). The following applies: receptor-selectivity potency ratio, cotransfection assays.
Experimental: as §1

Test [3] addresses T3, hPR (Homo sapiens, UniProt P06401).
T3 sequence (P06401 679-933 limits assumed): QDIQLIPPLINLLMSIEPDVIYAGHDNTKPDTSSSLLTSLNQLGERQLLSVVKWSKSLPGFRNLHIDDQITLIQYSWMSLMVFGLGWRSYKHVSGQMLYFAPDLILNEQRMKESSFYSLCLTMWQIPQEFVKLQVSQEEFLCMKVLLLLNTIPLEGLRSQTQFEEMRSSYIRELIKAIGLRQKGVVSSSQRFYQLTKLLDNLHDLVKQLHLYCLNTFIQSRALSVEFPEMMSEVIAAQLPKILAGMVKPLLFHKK
Nature of the test: T47D alkaline phosphatase assay, agonist mode. The following applies: T47D human breast cancer cells; for Emax: T47D, read-out: hPR Agonist T47D cells Eff. (%).
Text: The potential tissue-selectivities of the selected analogues were examined by using the T47D alkaline phosphatase assay that was developed from human breast cancer cells with endogenous PRs.

Regarding `CC1=CC(C)(C)Nc2ccc3c(c21)/C(=C/Br)Oc1c(F)cc(F)cc1-3` [Compound 29, 7,9-difluoro-5(Z)-bromomethylidene-1,2-dihydro-2,2,4-trimethyl-5H-chromeno[3,4-f]quinoline], at hPR [1], the Emax is less than 20% and the IC50 was greater than 10000 nM. Besides, the “hAR EC50 or IC50/hPR EC50” value in test [2] is recorded as 6. Further, at hPR [3], the EC50 came out at 8.7 nM and the Emax is 62%.
Taken in the same sequence, the figures for `CC1=CC(C)(C)Nc2ccc3c(c21)/C(=C/c1ccsc1)Oc1c(F)cc(F)cc1-3` [Compound 30, 7,9-difluoro-5(Z)-(3-thienylmethylidene)-1,2-dihydro-2,2,4-trimethyl-5H-chromeno[3,4-f]quinoline] were less than 20%, greater than 10000 nM, 377, 33 nM and 66%.
On the same counts, the results for `CC1=CC(C)(C)Nc2ccc3c(c21)/C(=C/c1cccs1)Oc1c(F)cc(F)cc1-3` [Compound 31, 7,9-difluoro-5(Z)-(2-thienylmethylidene)-1,2-dihydro-2,2,4-trimethyl-5H-chromeno[3,4-f]quinoline] are less than 20%, greater than 10000 nM, 517, 14 nM and 66%.
